Data from PMC8125951, “Exploring the 2′-Hydroxy-Chalcone Framework for the Development of Dual Antioxidant and Soybean Lipoxygenase Inhibitory Agents” (Molecules, 2021).
“And” between values parts separate entries of the source, which are not always exact repeats. Identical values can stand only once. Like-named read-outs stand apart in the source and are kept apart here.

Tests used:
[1] = Interaction with the stable free radical DPPH (reducing activity); conditions: 100 μM
Protocol: The first assay refers to the interaction of the compounds with the stable free radical DPPH and it is a fast, simple, cost-effective, and widely used method, where the DPPH radical reacts directly with the antioxidant and is decolorized. This interaction indicates their radical scavenging ability in an iron-free system. The scavenging effect of the synthesized analogues on the DPPH radical was evaluated according to the methods of Hadjipavlou et al..
To an ethanolic solution of DPPH (100 μM) in absolute ethanol, an equal volume of the compounds dissolved in DMSO was added (100 μM). […]

[2] = Inhibition of linoleic acid lipid peroxidation induced by AAPH; conditions: 100 μM
Description: The second technique is based on the ability of the compounds to inhibit lipid peroxidation of linoleic acid induced by 2,2′-Azobis(2-amidinopropane) dihydrochloride (AAPH) radical (Table 2). AAPH-induced linoleic acid oxidation has been developed as a quick and reliable method for measuring the antioxidant activity. The thermal free radical producer (AAPH) generates free radicals in the solution which cause the oxidation of linoleic acid, and the method is a measure of how effective antioxidants protect against lipid peroxidation in vitro. Oxidation of linoleic acid by AAPH is followed by UV spectrophotometry in a highly diluted sample [61].
2,2′-Azobis(2-amidinopropane) dihydrochloride (AAPH) was used as a free radical initiator. Ten microliters of the 16 mM linoleic acid sodium salt solution was added to the UV cuvette containing 0.93 mL of 0.05 M phosphate buffer, pH 7.4 prethermostated at 37 °C. The oxidation reaction was initiated at 37 °C under air by the addition of 50 μL of 40 mM AAPH solution. Oxidation was carried out in the presence of the synthesized compounds (10 μL, from a stock solution of 10 mM in DMSO). In the assay without antioxidant, lipid oxidation was measured in the presence of the same level of DMSO.

[3] = Competition of the tested compounds with DMSO for hydroxyl radicals; conditions: 100 μM
Description: Among the reactive oxygen species (ROS), the hydroxyl (^•OH) free radical is possibly the most toxic, reacting with several biological important molecules such as DNA, lipids, or carbohydrates. Polyunsaturated fatty acids are particularly vulnerable by free radicals. Iron released from damaged cells is more likely to be readily available to catalyze the generation of ^•OH radicals. Thus, we tried to test the ability of our compounds to scavenge hydroxyl radicals determining the competition of selected chalcones and aurones with DMSO for hydroxyl radicals. Hydroxyl radicals were generated using the Fe^3+/ascorbic acid system and expressed as a percentage inhibition of formaldehyde production in the presence of each compound at 100 μM.
The hydroxyl radicals generated by the Fe^3+ / ascorbic acid system, were detected by the determination of formaldehyde produced from the oxidation of DMSO (Table 2). A negative control using the same % DMSO was used. Trolox was used as reference compound [75].

[4] = ABTS radical cation decolorization assay; conditions: 100 μM
Protocol: The ABTS radical cation decolorization assay was used as another antioxidant activity estimation protocol (Table 2). Oxidation of ABTS with potassium persulfate generates directly the radical with no involvement of an intermediate radical, which is then reduced upon adding electron-donating antioxidants.
In order to produce the ABTS radical cation (ABTS^+·), ABTS stock solution in water (7 mM) was mixed with potassium persulfate (2.45 mM) and left in the dark at room temperature for 12–16 h before use. Our published experimental technique was used (1). The results are recorded after 1 min of the mixing solutions at 734 nm. The results were compared to the appropriate standard inhibitor Trolox.

soybean lipoxygenase = molecular target: T1, soybean lipoxygenase (Glycine max, UniProt P08170); assay: Soybean LOX inhibition study in vitro; type: biochemical; conditions: for IC50: read-out: Inhibition of Soybean Lipoxygenase IC50
T1 sequence (P08170 1-839): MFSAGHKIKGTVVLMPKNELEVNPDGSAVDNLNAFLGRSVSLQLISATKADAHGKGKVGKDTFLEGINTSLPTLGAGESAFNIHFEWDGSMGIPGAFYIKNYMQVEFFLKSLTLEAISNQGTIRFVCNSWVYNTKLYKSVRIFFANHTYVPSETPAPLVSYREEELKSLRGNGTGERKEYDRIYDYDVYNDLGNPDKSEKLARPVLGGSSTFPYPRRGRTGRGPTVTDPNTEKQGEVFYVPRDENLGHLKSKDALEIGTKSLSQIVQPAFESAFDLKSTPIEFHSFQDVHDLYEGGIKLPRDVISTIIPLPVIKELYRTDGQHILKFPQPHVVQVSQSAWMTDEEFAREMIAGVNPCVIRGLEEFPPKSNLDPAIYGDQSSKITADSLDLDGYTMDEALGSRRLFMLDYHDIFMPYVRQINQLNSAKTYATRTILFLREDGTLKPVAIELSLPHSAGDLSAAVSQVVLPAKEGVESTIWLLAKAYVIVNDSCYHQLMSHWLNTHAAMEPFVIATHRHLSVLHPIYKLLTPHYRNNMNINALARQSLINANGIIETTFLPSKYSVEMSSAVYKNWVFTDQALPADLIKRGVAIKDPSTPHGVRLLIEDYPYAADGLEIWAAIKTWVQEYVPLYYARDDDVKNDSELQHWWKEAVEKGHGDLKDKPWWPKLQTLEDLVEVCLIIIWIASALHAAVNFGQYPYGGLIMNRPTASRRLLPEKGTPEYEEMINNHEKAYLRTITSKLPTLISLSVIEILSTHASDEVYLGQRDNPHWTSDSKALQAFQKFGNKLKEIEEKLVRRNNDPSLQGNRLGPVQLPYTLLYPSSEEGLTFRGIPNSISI
Protocol: Furthermore, as an indication of their anti-inflammatory activity, all the molecules were tested as inhibitors of soybean lipoxygenase (LOX). The enzyme lipoxygenase catalyzes the first two steps in the metabolism of arachidonic acid, which is cleaved from membrane phospholipids to leukotrienes (LTB4). LTB4 generation is considered to be important in the pathogenesis of neutrophil-mediated inflammatory diseases. For this study, the UV absorbance-based soybean LOX assay was used, which is a plant enzyme with satisfactory homology with the human 5-LOX [61, 62, 63, 64, 65, 66].
The tested compounds dissolved in DMSO were incubated at room temperature with sodium linoleate (0.1 mL) and 0.2 mL of enzyme solution ([…] in saline) in Tris buffer pH 9.

[5] = read-out: Inhibition of Soybean Lipoxygenase 100 μM (%), at 100 μM

| Compound | inhibition at 100 µM (soybean lipoxygenase; at 100 μM, read-out: Inhibition of Soybean Lipoxygenase 100 μM (%)) [%] | IC50 (soybean lipoxygenase) [µM] | Interaction with the Free Radical DPPH (%) ([1]; 60 min) | Inhibition of Lipid Peroxidation of Linoleic Acid Induced by AAPH Radical (%) [2] | HO· (%) competition with DMSO for hydroxyl radicals [3] | ABTS+· % [4] [%] | Interaction with the Free Radical DPPH (%) ([1]; 20 min) | inhibition at 100 µM (soybean lipoxygenase; [5]) [%] |
| --- | --- | --- | --- | --- | --- | --- | --- | --- |
| COc1ccc(/C=C/C(=O)c2cc(Cl)ccc2O)cc1OC [Compound 3d, 5′-chloro-3,4-dimethoxy-2′-hydroxy-chalcone] | – | – | no | no | – | – | no | 32 |
| COc1cccc(/C=C/C(=O)c2cc(Cl)ccc2O)c1OC [Compound 3e, 5′-chloro-2,3-dimethoxy-2′-hydroxy-chalcone] | – | 100 | no | 20.0% | – | – | no | – |
| COc1ccc(/C=C/C(=O)c2cc(Br)ccc2O)cc1OC [Compound 3f, 5′-bromo-3,4-dimethoxy-2′-hydroxy-chalcone] | – | – | no | inactive and no | – | – | totally inactive and no | 38 |
| COc1ccc(/C=C/C(=O)c2cc(Br)cc(Br)c2O)cc1OC [Compound 3g, 3′,5′-dibromo-3,4-dimetoxy-2′-hydroxy-chalcone] | – | 68.5 | no | inactive and 31.0% | – | – | totally inactive and no | – |

More lines, main results first:

| inhibition at 100 µM (soybean lipoxygenase; at 100 μM, read-out: Inhibition of Soybean Lipoxygenase 100 μM (%)) [%] | IC50 (soybean lipoxygenase) [µM] | Compound | Interaction with the Free Radical DPPH (%) ([1]; 60 min) | Inhibition of Lipid Peroxidation of Linoleic Acid Induced by AAPH Radical (%) [2] | HO· (%) competition with DMSO for hydroxyl radicals [3] | ABTS+· % [4] [%] | Interaction with the Free Radical DPPH (%) ([1]; 20 min) | inhibition at 100 µM (soybean lipoxygenase; [5]) [%] |
| --- | --- | --- | --- | --- | --- | --- | --- | --- |
| 40.2 | – | COCOc1ccc(C(=O)/C=C/c2ccc(OCOC)c(OCOC)c2)c(O)c1 [Compound 3a, 2′-hydroxy-4′,3,4-methoxymethoxy-chalcone] | 21.6% | 11.4% | 40% | 93 | – | – |
| – | 75 | COc1cc(OC)c(OC)cc1/C=C/C(=O)c1ccccc1O [Compound 3b, 2′-hydroxy-2,4,5-trimethoxy-chalcone] | no | 67.3% | no | – | no | – |
| – | 45 | COCOc1ccc(C(=O)/C=C/c2cc(OC)c(OC)cc2OC)c(O)c1 [Compound 3c, 2′-hydroxy-4′-methoxymethoxy-2,4,5-trimethoxy-chalcone] | 2.3% | 39.4% | – | – | no | – |
| – | 55 | COCOc1ccc(/C=C/C(=O)c2cc(Br)ccc2O)cc1OCOC [Compound 3h, 5′-bromo-3,4-dimethoxymethoxy-2′-hydroxy-chalcone] | 6.0% | 65.6% | – | – | – | – |
